What was measured:
[1] = Circular dichroism secondary structure; format: physicochemical; conditions: CD, 100 µM, 190-240 nm, five scans averaged, Provencher & Glockner Method
Procedure: Circular dichroism (CD) spectroscopy was carried out using a Jasco J-815 spectropolarimeter (Easton, MD, USA). PAM solutions (100 µM) were analyzed in 0.2 mm path-length cuvettes. Measurements were made at 0.5 nm intervals from 190 nm to 240 nm with 1 s intervals and 1 nm bandwidth. Data from five scans were averaged to create the CD spectra, and the secondary structures were quantified using the Provencher & Glockner Method.

murine monocytes = assay: Chemotaxis assay (transwell, migrated monocyte DNA); format: cell-based; conditions: 4 h, 8 µm pore transwell, Pico Green, n = 4
Procedure: To determine the chemoattractant properties of PAMs, 50,000 monocytes in 20 µL were suspended on a 24-well transwell plate with 8 µm pores. After 4 h, the number of cells that migrated to the bottom well containing 1 µM, 10 µM, 100 µM, 1000 µM PAMs, peptides, or PBS was quantified by lysing the cells via sonication, and measuring DNA using Quant-it Pico Green (Invitrogen, Carlsbad, CA, USA).

Row | Sequence | Secondary Structure, Alpha Helix [1] | Secondary Structure, Beta Sheet [1] | Secondary Structure, Random Coil [1] | Amount of migrated monocyte DNA at 1000 µM (murine monocytes)
1 | YNFTNRKISVQRLASYRRITSSK [MCP-1 Peptide, MCP-1 peptide (residues 13–35) modified with a cysteine at the N-terminus] | 9.2% | 36.2% | 54.5% | 78.98 ± 0.8 ng/mL
2 | YNSLVFRIRNSTQRKYRASIST [Scrambled MCP-1 Peptide, scrambled version of the MCP-1 peptide designed to mimic its secondary structure] | 8.6% | 43.9% | 47.5% | –
